In patent US20240115654A1, “INTRAVENOUS ADMINISTRATION OF ENGINEERED ANTIMICROBIAL AMPHIPHILIC PEPTIDES” (priority 2021, published 2024):
Read-outs that look alike come from different tables or passages of the source. Peptide text beside a SMILES is read from it.

Text: All subjects who met eligibility criteria were confined to the clinical research unit from […] through Day 3. At admission, physical examination, vital signs, 12 lead ECG and weight were obtained, medical and medication history were updated if necessary, safety blood tests (hematology and chemistry), urinalysis, urine drug screen and an alcohol breath test were repeated and a urine pregnancy test was done for women of childbearing potential.
At each dose level, there were 2 sentinel subjects, (1 active, 1 placebo), who were dosed at least 48 hours in advance of the other subjects in their respective group. Following review of safety data, including physical examination, vital signs, and review of adverse events from the first 2 subjects, enrolment in the cohort continued.
A 12-lead ECG was performed on Day 1, within 60 minutes of infusion start (in triplicate), mid-way through the infusion, at the completion of the infusion, 30 minutes after completion of the infusion and at various timepoints following the end of the infusion.
Vital signs were recorded within 60 minutes pre-dose, at the mid-point of the infusion and post dose vitals were assessed at completion of the infusion, 0.5, 1, 2, 3, 4, 6, 9, 12, 24 and 48 hours post dose, after at least 3 minutes of rest in supine position.
Subjects returned to the study center 7 days after dosing, for the termination visit. A full physical examination, vital signs and weight were obtained, concomitant medications were updated if necessary, safety blood specimens (haematology and chemistry, PT and aPTT) and urine were collected for urinalysis and urine drug screening. A serum pregnancy test was done for women of childbearing potential and a 12-lead ECG was performed.
In this study dose limiting toxicity (DLT) was defined as any drug related ≥Grade 3 AEs occurring despite optimal therapeutic interventions (which included but were not limited to allergic/hypersensitivity reactions, dermatological reactions/infusion site reactions, haematological toxicities such as neutropenia, thrombocytopenia and anaemia and clinical chemistry abnormalities) experienced up to Day 7 (Termination Visit).
(§1) All subjects who received any amount of study drug were included in the safety analysis (Safety population).
The study was a double blinded, randomized, placebo-controlled study. The placebo administered was 0.9% sodium chloride.
On Day 1 (day of dosing), subjects were randomly assigned either peptide IV or Placebo IV. At each dose level, there were 2 sentinel subjects, (1 active, 1 placebo), who were dosed at least 48 hours in advance of the other subjects in their respective group. Following review of safety data, including physical examination, vital signs, and review of adverse events from the first 2 subjects, enrolment in the cohort continued. All subjects who met eligibility criteria were confined to the clinical research unit from Day −2 through Day 3. At admission, physical examination, vital signs, 12 lead ECG and weight were obtained, medical and medication history were updated if necessary, safety blood tests (hematology and chemistry), urinalysis, urine drug screen and an alcohol breath test were repeated and a urine pregnancy test was done for women of childbearing potential.
as §1

[1] = 0.5 mg/kg IV 2 hr infusion (N = 6)
[2] = Cohort 1: 0.05 mg/kg IV 1-hr infusion (N = 6)

CC(C)[C@H](NC(=O)[C@H](Cc1c[nH]c2ccccc12)NC(=O)[C@H](CCCNC(=N)N)NC(=O)[C@H](CCCNC(=N)N)NC(=O)[C@@H](NC(=O)[C@@H](NC(=O)[C@H](CCCNC(=N)N)NC(=O)[C@@H](NC(=O)[C@@H](NC(=O)[C@H](CCCNC(=N)N)NC(=O)[C@H](CCCNC(=N)N)NC(=O)[C@H](Cc1c[nH]c2ccccc12)NC(=O)[C@@H](NC(=O)[C@H](CCCNC(=N)N)NC(=O)[C@H](CCCNC(=N)N)NC(=O)[C@@H](NC(=O)[C@H](CCCNC(=N)N)NC(=O)[C@H](CCCNC(=N)N)NC(=O)[C@@H](NC(=O)[C@H](Cc1c[nH]c2ccccc12)NC(=O)[C@H](CCCNC(=N)N)NC(=O)[C@@H](N)CCCNC(=N)N)C(C)C)C(C)C)C(C)C)C(C)C)C(C)C)C(C)C)C(C)C)C(=O)N[C@@H](CCCNC(=N)N)C(=O)N[C@@H](CCCNC(=N)N)C(N)=O [SEQ ID NO: 1] (H-RRWVRRVRRVWRRVVRVVRRWVRR-NH2)
2: TEAE Gastrointestinal disorders, M occurrences [1] | TEAE Severity Grade 2, participants n [1] | TEAE Skin and [?] tissue [?], n participants [1] | TEAE Skin reaction, M occurrences [1]
4: TEAE Injury, [?] and procedural complications, M occurrences [1]
7: TEAE, occurrences (M) (0.05 mg/kg IV 1 hr infusion (N = 6)) | One TEAE, m [2]
15: TEAE, occurrences (M) [1]
0: Related TEAE Blood and lymphatic system disorders, n participants [1] | Related TEAE Co[?], n participants [1] | Related TEAE F[?], n participants [1] | Related TEAE In[?] related reaction, n participants [1] | Related TEAE Injury, poi[?] procedural complications, n participants [1] | Related TEAE M[?] and connective tissure disorders, n participants [1] | Related TEAE Myalgia, n participants [1] | Related TEAE Nervous system disorders, n participants [1] | Related TEAE O[?] (r25, vascular SOC), n participants [1] | Related TEAE O[?] (r38, respiratory SOC), n participants [1] | Related TEAE P[?] (r26, vascular SOC), n participants [1] | Related TEAE Pain in extremity, n participants [1] | Related TEAE Respiratory, thoracic and m[?] disorders, n participants [1] | Related TEAE T[?], n participants [1] | Related TEAE V[?] (r18), n participants [1] | Related TEAE Vascular disorders, n participants [1] | Related TEAE [?] headache, n participants [1] | TEAE A[?] (r19, skin SOC), n participants [1] | TEAE Abdominal pain, n participants [1] | TEAE Blood and lymphatic system disorders, n participants [1] | TEAE Constipation, n participants [1] | TEAE D[?] contact, n participants [1] | TEAE Dizziness, n participants [1] | TEAE Mu[?], n participants [1] | TEAE My[?], n participants [1] | TEAE O[?] (r37, vascular SOC), n participants [1] | TEAE O[?] pain, n participants [1] | TEAE P[?] (r43, nervous SOC), n participants [1] | TEAE Respiratory, thoracic and [?] disorders, n participants [1] | TEAE Thermal [?], n participants [1] | TEAE V[?] puncture site [?] (r27), n participants [1] | TEAE V[?] puncture site [?] (r28), n participants [1] | TEAE Vascular access site [?] (r15), n participants [1] | TEAE Vascular disorders, n participants [1] | TEAE [?] (r13, under Injury SOC), n participants [1] | TEAE [?] (r26, general SOC), n participants [1] | TEAE [?] (r38, vascular SOC), n participants [1] | TEAE [?] (r39, vascular SOC), n participants [1] | TEAE [?] (r44, nervous SOC), n participants [1] | TEAE [?] (r52, blood SOC), n participants [1] | Number of Participants Reporting at least: Onc TEAE Leading to Study Withdrawal, n (%) [2] | Number of Participants Reporting at least: One Dose-Limiting Toxicity, n (%) [2] | Number of Participants Reporting at least: One Serious TEAE, n (%) [2] | Number of Participants Reporting at least: One TEAE Leading to Study Drug Discontinuation, n (%) [2] | Number of Participants Reporting at least: One TEAE with Common Terminology Criteria for Adverse Events (CTCAE) Toxicity ≥ Grade 3, n (%) [2]
100%: Participants Reporting at least One TEAE, % [1] | TEAE Severity Grade 1, participants % [1]
5 (83.3%): Number of Participants Reporting at least: One TEAE, n (%) [2] | Participants With At Least 1 TEAE, n (%) [2]
1 (16.7%): Number of Participants Reporting at least: One Related TEAE, n (%) [2]
safe and well tolerated: overall safety and tolerability (0.05 to 0.5 mg/kg, drug concentration below […] and rate of infusion below 25 mg/hr)
6: TEAE Severity Grade 1, participants n [1]
1: TEAE Gastrointestinal disorders, n participants [1] | TEAE Skin reaction, n participants [1] | One Related TEAE, m [2]
12: TEAE Severity Grade 1, occurrences (M) [1]
3: TEAE Injury, [?] and procedural complications, n participants [1] | TEAE Severity Grade 2, occurrences (M) [1] | TEAE Skin and [?] tissue [?], M occurrences [1]
